Data: patent US20250171459A1, “2-METHYL-4',5'-DIHYDROSPIRO[PIPERIDINE-4,7'-THIENO[2,3-C]PYRAN] DERIVATIVES AS INHIBITORS OF APOL1 AND METHODS OF USING SAME” (Vertex Pharmaceuticals Incorporated, priority 2022, published 2025)

Target: T1, APOL1 (Homo sapiens, UniProt O14791)
T1 sequence (O14791 1-398 S342G/I384M): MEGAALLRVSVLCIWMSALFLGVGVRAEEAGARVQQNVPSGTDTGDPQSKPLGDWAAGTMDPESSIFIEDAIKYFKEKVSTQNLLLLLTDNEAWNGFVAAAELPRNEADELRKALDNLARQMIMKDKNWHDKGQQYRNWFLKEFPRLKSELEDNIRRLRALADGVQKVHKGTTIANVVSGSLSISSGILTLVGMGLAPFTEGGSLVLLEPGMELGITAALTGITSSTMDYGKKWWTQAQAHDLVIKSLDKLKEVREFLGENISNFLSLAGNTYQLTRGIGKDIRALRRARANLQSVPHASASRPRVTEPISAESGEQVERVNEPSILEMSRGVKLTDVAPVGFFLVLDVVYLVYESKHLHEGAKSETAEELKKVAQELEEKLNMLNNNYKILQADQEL
Assay: MultiTox-Fluor Multiplex Cytotoxicity Assay in tet-inducible APOL1 T-REx-HEK293 cells (cell rescue, ratio of dead to live cells)
Assay type: cell-based
Conditions: tet-inducible transgenic APOL1 T-REx-HEK293 cell lines, 50 ng/mL tet, 24 hours; read-out: IP50 (i.e., IC50 for cell proliferation)
Method in brief: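 T-REx-HEK293 cells with tet-inducible APOL1 were treated with compound (10 μM top, 10-point 3-fold dilution, duplicate) plus 50 ng/mL tetracycline for 24 h at 37° C, in DMEM with 2% tet-free FBS. MultiTox-Fluor protease signals gave a dead/live ratio, normalized to no tet (100% viability) and tet alone (0%).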

Structure (SMILES)	IC50 [nM]
CCc1cc2c(s1)CCO[C@@]21CCN(Cc2cnc(N[C@@H]3C=C[C@H](CO)C3)nc2)[C@@H](C)C1 [Compound 200, [(1R,4S)-4-[[5-[[(2′S,4R)-2-ethyl-2′-methyl-spiro[6,7-dihydrothieno[3,2-c]pyran-4,4′-piperidine]-1′-yl]methyl]pyrimidin-2-yl]amino]cyclopent-2-en-1-yl]methanol]	< 100
CCc1cc2c(s1)CCO[C@@]21CCN(CC2CN(C(=O)C3CNC(=O)O3)C2)[C@@H](C)C1 (stereo partly drawn) [Compound 478]	100 to 500
CCc1cc2c(s1)CCO[C@@]21CCN(C[C@H]2C[C@H](NC(=O)OC(C)(C)C)C2)[C@@H](C)C1 [Compound 418, tert-butyl N-[3-[[(2′S,4R)-2-ethyl-2′-methyl-spiro[6,7-dihydrothieno[3,2-c]pyran-4,4′-piperidine]-1′-yl]methyl]cyclobutyl]carbamate]	100 to 500
Cc1cc2c(s1)[C@]1(CCN(Cc3cnn(CCS(C)(=O)=O)c3)[C@@H](C)C1)OCC2(O)C(F)F (stereo partly drawn) [Compound 1031, (2′S, 7R)-4-(difluoromethyl)-2,2′-dimethyl-1′-[[1-(2-methylsulfonylethyl)pyrazol-4-yl]methyl]spiro[5H-thieno[2,3-c]pyran-7,4′-piperidine]-4-ol]	< 100
CC(O)Cn1cc(CN2CC[C@]3(C[C@@H]2C)OCCc2c3sc(C(F)(F)F)c2CO)nn1 (stereo partly drawn) [Compound 1002]	< 100
CCc1cc2c(s1)CCO[C@@]21CCN(Cc2cnc(OCC3(N)CCCCC3)nc2)[C@@H](C)C1 [Compound 227]	< 100
C[C@H]1C[C@@]2(CCN1Cc1cnn(CCO)c1)OC[C@@H](O)c1cc(C(F)(F)F)sc12 [Compound 885]	< 100
C[C@H]1C[C@@]2(CCN1Cc1cn(CCS(C)(=O)=O)nn1)OCCc1sc(Cl)cc12 [Compound 511]	< 100
CCc1cc2c(s1)CCO[C@@]21CCN(CC2CC(NC(=O)CCCCCOCCOCCOCCOCCCCCCCl)C2)[C@@H](C)C1 (stereo partly drawn) [Compound 385, 6-[2-[2-[2-(6-chlorohexoxy)ethoxy]ethoxy]ethoxy]-N-[3-[[(2′S,4R)-2-ethyl-2′-methyl-spiro[6,7-dihydrothieno[3,2-c]pyran-4,4′-piperidine]-1′-yl]methyl]cyclobutyl]hexanamide]	100 to 500
C[C@H]1C[C@@]2(CCN1Cc1ccc(OCCO)cc1)OCCc1c2sc(Cl)c1CO [Compound 715]	< 100
CCc1cc2c(s1)CCO[C@@]21CCN(Cc2cn(CC(C)COC)nn2)[C@@H](C)C1 (stereo partly drawn) [Compound 108]	100 to 500
C[C@H]1C[C@@]2(CCN1C[C@H](O)C(=O)N(C)C)OCCc1cc(Cl)sc12 [Compound 711, (2S)-3-[(2′S, 7R)-2-chloro-2′-methyl-spiro[4,5-dihydrothieno[2,3-c]pyran-7,4′-piperidine]-1′-yl]-2-hydroxy-N,N-dimethyl-propanamide]	100 to 500
CCc1cc2c(s1)CCOC21CCN(Cc2cnn(C(C)=O)c2)CC1 [Compound 1135]	100 to 500
CCc1cc2c(s1)CCOC21CCN(Cc2cn(CCN3CCC(O)C3)nn2)CC1 (stereo not drawn) [Compound 1104]	500 to 1000
COc1cnc(CN2CC[C@]3(C[C@@H]2C)OC[C@H](O)c2cc(Cl)sc23)cn1 [Compound 783]	100 to 500
CCc1cc2c(s1)CCO[C@@]21CCN(C[C@H]2C[C@@H](NS(=O)(=O)Cc3ccccc3)C2)[C@@H](C)C1 [Compound 398]	< 100
CCc1cc2c(s1)CCOC21CCN(Cc2cn([C@H]3CC[C@@H]3O)nn2)CC1 [Compound 1098]	500 to 1000
CCc1cc2c(s1)CCO[C@@]21CCN(Cc2cn(C3CC(CO)N3)nn2)[C@@H](C)C1 (stereo partly drawn) [Compound 128]	100 to 500
C[C@H]1C[C@@]2(CCN1Cc1cn(CCS(C)(=O)=O)nn1)OCCc1c2sc(C(F)(F)F)c1CO [Compound 871, [(2′S, 7R)-2′-methyl-1′-[[1-(2-methylsulfonylethyl)triazol-4-yl]methyl]-2-(trifluoromethyl)spiro[4,5-dihydrothieno[2,3-c]pyran-7,4′-piperidine]-3-yl]methanol]	< 100
CCc1cc2c(s1)CCO[C@@]21CCN(C[C@H]2C[C@@H](NC(=O)c3cc(C)[nH]n3)C2)[C@@H](C)C1 [Compound 326]	< 100
C[C@H]1C[C@@]2(CCN1Cc1cnn(CCS(C)(=O)=O)c1)OCC(N)c1cc(Cl)sc12 (stereo partly drawn) [Compound 854, (2′S, 7R)-2-chloro-2′-methyl-1′-[[1-(2-methylsulfonylethyl)pyrazol-4-yl]methyl]spiro[4,5-dihydrothieno[2,3-c]pyran-7,4′-piperidine]-4-amine]	< 100
CCc1cc2c(s1)CCO[C@@]21CCN(Cc2cn(C3CN(S(=O)(=O)C4CC4)C3)nn2)[C@@H](C)C1 [Compound 5]	< 100
Cc1cncc(N2CCC(CN3CC[C@]4(C[C@@H]3C)OCCc3cc(Cl)sc34)CC2)n1 [Compound 677]	500 to 1000
Cc1cnccc1CN1CC[C@]2(C[C@@H]1C)OCCc1cc(Cl)sc12 [Compound 693]	500 to 1000
C[C@@H]1C[C@]2(CCN1Cc1cnn(C)c1)OCCc1cc(Cl)sc12 (stereo in doubt) [Compound 630, (2R,4S)-2′-chloro-2-methyl-1-((1-methyl-1H-pyrazol-4-yl)methyl)-4′,5′-dihydrospiro[piperidine-4,7′-thieno[2,3-c]pyran]]	< 100
CCc1cc2c(s1)CCOC21CCN(Cc2cn(CC3CC(=O)N(CCOC)C3)nn2)C(C)C1 (stereo not drawn) [Compound 116]	100 to 500

Structure (SMILES)	IC50 [nM]
CCc1cc2c(s1)CCO[C@@]21CCN(C[C@H]2C[C@@H](NC(=O)OC(C)(C)C)C2)[C@@H](C)C1 [Compound 1039]	< 100
C[C@H]1C[C@@]2(CCN1Cc1cnn(C[C@H](O)CO)c1)OCCc1c2sc(C(F)(F)F)c1CO [Compound 899]	100 to 500
CCc1cc2c(s1)CCOC21CCN(Cc2ccc(C(=O)NC(C)(C)CO)nc2)CC1 [Compound 1047]	< 100
C[C@H]1C[C@@]2(CCN1Cc1ccc(OCC(=O)N3CCOCC3)cc1)OCCc1cc(Cl)sc12 [Compound 648]	< 100
C[C@H]1C[C@@]2(CCN1Cc1cccc(Cl)c1O)OCCc1cc(Cl)sc12 [Compound 690]	500 to 1000
COc1cc(CN2CC[C@]3(C[C@@H]2C)OCCc2cc(Cl)sc23)ccc1OCC(N)=O [Compound 663]	< 100
C[C@H]1C[C@@]2(CCN1CC1(C)COC1)OCCc1cc(CC(F)F)sc12 [Compound 585]	100 to 500
CCc1cc2c(s1)CCOC21CCN(Cc2cnn(CCS(=O)(=O)NC)c2)CC1 [Compound 1127]	< 100
CCc1cc2c(s1)CCO[C@@]21CCN(Cc2cn(CCc3cnccn3)nn2)[C@@H](C)C1 [Compound 43]	100 to 500
CCc1cc2c(s1)CCOC21CCN(Cc2cn(CCS(=O)(=O)CC)nn2)CC1 [Compound 1089]	500 to 1000
CCc1cc2c(s1)CCOC21CCN(Cc2ccc(NCc3cc[nH]c(=O)c3)cc2)CC1 [Compound 1162]	100 to 500
CCc1cc2c(s1)CCOC21CCN(Cc2ccc(NC3(COC)CC3)nc2)CC1 [Compound 1072]	100 to 500
CCc1cc2c(s1)CCOC21CCN(Cc2cnc(NC3CC3OC)nc2)CC1 (stereo not drawn) [Compound 1076]	100 to 500
CCc1cc2c(s1)CCO[C@@]21CCN(Cc2cn(CC(=O)NCCO)nn2)[C@@H](C)C1 [Compound 81]	100 to 500
C[C@H]1C[C@@]2(CCN1Cc1cn[nH]c1)OCC(O)c1cc(Cl)sc12 (stereo partly drawn) [Compound 817]	< 100
C[C@H]1C[C@@]2(CCN1C1COCC1O)OCCc1cc(C(F)(F)F)sc12 (stereo partly drawn) [Compound 866, 4-[(2′S, 7R)-2′-methyl-2-(trifluoromethyl)spiro[4,5-dihydrothieno[2,3-c]pyran-7,4′-piperidine]-1′-yl]tetrahydrofuran-3-ol]	100 to 500
C[C@H]1CC2(CCN1Cc1cnn(C)c1)OC1CCCCC1c1cc(Cl)sc12 (stereo partly drawn) [Compound 1021, (2S)-2′-chloro-2-methyl-1-((1-methyl-1H-pyrazol-4-yl)methyl)-5a′,6′,7′,8′,9′,9a′-hexahydrospiro[piperidine-4,4′-thieno[2,3-c]chromene]]	100 to 500
CCc1cc2c(s1)CCO[C@@]21CCN(Cc2cn(-c3cccnc3)nn2)[C@@H](C)C1 [Compound 73]	< 100
C[C@H]1C[C@@]2(CCN1Cc1cnn(CCS(C)(=O)=O)c1)OCCc1cc(C3CCC3)sc12 [Compound 1033, (2′S,7R)-2-cyclobutyl-2′-methyl-1′-[[1-(2-methylsulfonylethyl)pyrazol-4-yl]methyl]spiro[4,5-dihydrothieno[2,3-c]pyran-7,4′-piperidine]]	< 100
C[C@H]1C[C@@]2(CCN1Cc1cnn(Cc3ccc(F)cc3)c1)OCCc1cc(Cl)sc12 [Compound 707]	< 100
CCc1cc2c(s1)CCOC21CCN(Cc2cn(CCc3csc(N)n3)nn2)CC1 [Compound 1093]	500 to 1000
CCc1cc2c(s1)CCO[C@@]21CCN(C[C@H]2C[C@@H](N)C2)[C@@H](C)C1 [Compound 299, 3-[[(2′S,4R)-2-ethyl-2′-methyl-spiro[6,7-dihydrothieno[3,2-c]pyran-4,4′-piperidine]-1′-yl]methyl]cyclobutanamine]	100 to 500
Cc1nccn1-c1ccc(CN2CC[C@]3(C[C@@H]2C)OCCc2cc(Cl)sc23)cc1 [Compound 671]	< 100
CCc1cc2c(s1)CCO[C@@]21CCN(Cc2cn(CCOCCO)nn2)[C@@H](C)C1 [Compound 178]	100 to 500
CCc1cc2c(s1)CCO[C@@]21CCN(Cc2cn(Cc3cnc(C)cn3)nn2)[C@@H](C)C1 [Compound 32]	< 100
